Test results as given in patent US9187471B2, “Pyrido [4,3-b] indole and pyrido [3,4-b] indole derivatives and methods of use” (Medivation Technologies, Inc., priority 2010, dated 2015).

Assays:
[1] = target: T1, human recombinant serotonin (5-Hydroxytryptamine) 5-HT2C receptor (Homo sapiens, UniProt P28335); experiment: Serotonin 5-HT2C radioligand binding ([3H]Mesulergine); conditions: compound at 0.1 μM; read-out: Inhibition of ligand binding, Serotonin 5-HT2C (percent inhibition of specific binding)
T1 construct: expressed in transfected cells; host or cells: CHO-K1
T1 sequence (P28335 33-458): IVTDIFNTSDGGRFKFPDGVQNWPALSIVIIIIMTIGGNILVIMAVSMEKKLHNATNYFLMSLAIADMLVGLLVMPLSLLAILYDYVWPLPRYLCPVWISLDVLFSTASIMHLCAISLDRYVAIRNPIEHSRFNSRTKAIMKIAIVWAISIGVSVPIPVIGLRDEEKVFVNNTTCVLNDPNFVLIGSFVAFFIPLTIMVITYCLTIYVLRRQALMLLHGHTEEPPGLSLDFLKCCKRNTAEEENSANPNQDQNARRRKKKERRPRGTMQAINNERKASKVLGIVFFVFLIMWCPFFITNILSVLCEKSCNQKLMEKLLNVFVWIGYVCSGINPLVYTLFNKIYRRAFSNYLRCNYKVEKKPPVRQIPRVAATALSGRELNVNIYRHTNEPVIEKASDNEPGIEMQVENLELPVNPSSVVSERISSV
Experimental: Compounds of the invention were incubated with 1 nM [^3H]Mesulergine for 60 min at 25° C. Non-specific binding was estimated in the presence of 1 μM Mianserin. Receptor proteins were filtered and washed, the filters were then counted to determine [^3H]Mesulergine specifically bound.

[2] = target: T2, human recombinant serotonin (5-Hydroxytryptamine) 5-HT2A receptor (Homo sapiens, UniProt P28223); experiment: Serotonin 5-HT2A radioligand binding ([3H]Ketanserin); conditions: compound at 0.1 μM; read-out: Inhibition of ligand binding, Serotonin 5-HT2A (percent inhibition of specific binding)
T2 construct: expressed in transfected cells; host or cells: CHO-K1
Experimental: Compounds of the invention were incubated with 0.5 nM [^3H]Ketanserin for 60 min at 25° C. Non-specific binding was estimated in the presence of 1 μM Mianserin. Receptor proteins were filtered and washed, the filters were then counted to determine [^3H]Ketanserin specifically bound.

T2 sequence (P28223 whole entry): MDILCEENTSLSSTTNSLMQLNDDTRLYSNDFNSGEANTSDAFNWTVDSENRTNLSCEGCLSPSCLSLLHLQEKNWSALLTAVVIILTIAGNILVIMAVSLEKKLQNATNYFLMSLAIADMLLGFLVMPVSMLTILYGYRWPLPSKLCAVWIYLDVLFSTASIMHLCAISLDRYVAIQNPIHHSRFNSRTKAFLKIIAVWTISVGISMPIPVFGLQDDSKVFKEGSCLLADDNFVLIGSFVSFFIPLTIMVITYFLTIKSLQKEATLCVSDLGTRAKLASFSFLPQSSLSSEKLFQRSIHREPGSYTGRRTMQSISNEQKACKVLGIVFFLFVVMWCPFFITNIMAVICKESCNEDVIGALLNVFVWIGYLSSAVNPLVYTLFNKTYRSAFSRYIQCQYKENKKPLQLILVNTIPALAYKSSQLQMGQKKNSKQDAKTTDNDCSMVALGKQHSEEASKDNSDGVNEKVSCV

## Cc1ccc2c(c1)c1c(n2-c2cscc2-c2ccc(F)nc2)CCN(C)C1 [Compound 35]
[1]
  inhibition at 0.1 µM: 74%
[2]
  inhibition at 0.1 µM: 82%

## Cc1ccc2c(c1)c1c(n2-c2cscc2-c2sccc2C)CCN(C)C1 [Compound 39]
[1]
  inhibition at 0.1 µM: 93%
[2]
  inhibition at 0.1 µM: 84%

## Cc1ccc2c(c1)c1c(n2-c2ccccc2-c2ccc(F)nc2)CCN(C)C1 [Compound No. 84, 5-(2-(6-fluoropyridin-3-yl)phenyl)-2,8-dimethyl-2,3,4,5-tetrahydro-1H-pyrido[4,3-b]indole]
[1]
  inhibition at 0.1 µM: 75%
[2]
  inhibition at 0.1 µM: 89%

## Cc1ccc2c(c1)c1c(n2-c2ccc(-c3cncc4ccccc34)cn2)CCN(C)C1 [Compound No. 135, 5-(5-(isoquinolin-4-yl)pyridin-2-yl)-2,8-dimethyl-2,3,4,5-tetrahydro-1H-pyrido[4,3-b]indole]
[1]
  inhibition at 0.1 µM: 88%
[2]
  inhibition at 0.1 µM: 72%

## CNC(=O)c1ccc(-c2ccccc2-n2c3c(c4cc(C)ccc42)CN(C)CC3)cc1 [Compound No. 72, 2′-(2,8-dimethyl-3,4-dihydro-1H-pyrido[4,3-b]indol-5(2H)-yl)-N-methylbiphenyl-4-carboxamide]
[1]
  inhibition at 0.1 µM: 16%
[2]
  inhibition at 0.1 µM: 35%

## Cc1ccc2c(c1)c1c(n2-c2ccc3cnccc3c2)CCN(C)C1 [Compound 38]
[1]
  inhibition at 0.1 µM: 88%
[2]
  inhibition at 0.1 µM: 84%

## Cc1ccc2c(c1)c1c(n2-c2ccc(-c3ccc(S(N)(=O)=O)cc3)cn2)CCN(C)C1 [Compound No. 145, 4-(6-(2,8-dimethyl-3,4-dihydro-1H-pyrido[4,3-b]indol-5(2H)-yl)pyridin-3-yl)benzenesulfonamide]
[1]
  inhibition at 0.1 µM: 66%
[2]
  inhibition at 0.1 µM: 82%

## Cc1ccc2c(c1)c1c(n2-c2cccc(-c3cn[nH]c3)c2)CCN(C)C1 [Compound No. 70, 5-(3-(1H-pyrazol-4-yl)phenyl)-2,8-dimethyl-2,3,4,5-tetrahydro-1H-pyrido[4,3-b]indole]
[1]
  inhibition at 0.1 µM: 81%
[2]
  inhibition at 0.1 µM: 98%

## Cc1ccc2c(c1)c1c(n2-c2cccc(-c3cccn3C)c2)CCN(C)C1 [Compound No. 69, 2,8-dimethyl-5-(3-(1-methyl-1H-pyrrol-2-yl)phenyl)-2,3,4,5-tetrahydro-1H-pyrido[4,3-b]indole]
[1]
  inhibition at 0.1 µM: 79%
[2]
  inhibition at 0.1 µM: 99%

## Cc1ccc2c(c1)c1c(n2-c2ccc(-c3c(C)noc3C)cn2)CCN(C)C1 [Compound No. 137, 4-(6-(2,8-dimethyl-3,4-dihydro-1H-pyrido[4,3-b]indol-5(2H)-yl)pyridin-3-yl)-3,5-dimethylisoxazole]
[1]
  inhibition at 0.1 µM: 75%
[2]
  inhibition at 0.1 µM: 62%

## Cc1ccc2c(c1)c1c(n2-c2cccc(-c3ccc(S(C)(=O)=O)cc3)c2)CCN(C)C1 [Compound No. 131, 2,8-dimethyl-5-(4′-(methylsulfonyl)biphenyl-3-yl)-2,3,4,5-tetrahydro-1H-pyrido[4,3-b]indole]
[1]
  inhibition at 0.1 µM: -6%
[2]
  inhibition at 0.1 µM: 74%

## Cc1ccc2c(c1)c1c(n2-c2cccc(-c3ccc(F)cc3)c2)CCN(C)C1 [Compound 61, 5-(4′-fluorobiphenyl-3-yl)-2,8-dimethyl-2,3,4,5-tetrahydro-1H-pyrido[4,3-b]indole]
[1]
  inhibition at 0.1 µM: 81%
[2]
  inhibition at 0.1 µM: 102%

## Cc1csc(-c2cccc(-n3c4c(c5cc(C)ccc53)CN(C)CC4)c2)c1 [Compound No. 63, 2,8-dimethyl-5-(3-(4-methylthiophen-2-yl)phenyl)-2,3,4,5-tetrahydro-1H-pyrido[4,3-b]indole]
[1]
  inhibition at 0.1 µM: 77%
[2]
  inhibition at 0.1 µM: 101%

## Cc1ccc2c(c1)c1c(n2-c2cccc(-c3cncc4ccccc34)c2)CCN(C)C1 [Compound No. 67, 5-(3-(isoquinolin-4-yl)phenyl)-2,8-dimethyl-2,3,4,5-tetrahydro-1H-pyrido[4,3-b]indole]
[1]
  inhibition at 0.1 µM: 23%
[2]
  inhibition at 0.1 µM: 75%

## Cc1ccc2c(c1)c1c(n2-c2cccc(-c3ccc(O)nc3)c2)CCN(C)C1 [Compound 52, 5-(3-(2,8-dimethyl-3,4-dihydro-1H-pyrido[4,3-b]indol-5(2H)-yl)phenyl)pyridin-2-ol]
[1]
  inhibition at 0.1 µM: 19%
[2]
  inhibition at 0.1 µM: 76%

## Cc1ccc2c(c1)c1c(n2-c2ccc(-c3ccncc3)cn2)CCN(C)C1 [Compound No. 132, 5-(3,4′-bipyridin-6-yl)-2,8-dimethyl-2,3,4,5-tetrahydro-1H-pyrido[4,3-b]indole]
[1]
  inhibition at 0.1 µM: 77%
[2]
  inhibition at 0.1 µM: 83%

## CNC(=O)c1ccc(-c2cscc2-n2c3c(c4cc(C)ccc42)CN(C)CC3)cn1 [Compound No. 73]
[1]
  inhibition at 0.1 µM: 43%
[2]
  inhibition at 0.1 µM: 64%

## Cc1cc(C)c2c(c1)c1c(n2-c2cccc(-c3ccncc3)c2)CCN(C)C1 [Compound 57, 2,6,8-trimethyl-5-(3-(pyridin-4-yl)phenyl)-2,3,4,5-tetrahydro-1H-pyrido[4,3-b]indole]
[1]
  inhibition at 0.1 µM: 28%
[2]
  inhibition at 0.1 µM: 70%

## Cc1ccc2c(c1)c1c(n2-c2cscc2-c2cc3ccccc3s2)CCN(C)C1 [Compound No. 151]
[1]
  inhibition at 0.1 µM: 47%
[2]
  inhibition at 0.1 µM: 32%

## Cc1ccc2c(c1)c1c(n2-c2cccc(-c3ccc(F)nc3)c2)CCN(C)C1 [Compound 44, 5-(3-(6-fluoropyridin-3-yl)phenyl)-2,8-dimethyl-2,3,4,5-tetrahydro-1H-pyrido[4,3-b]indole]
[1]
  inhibition at 0.1 µM: 83%
[2]
  inhibition at 0.1 µM: 103%

## Cc1ccc2c(c1)c1c(n2-c2cccc(-c3cnn(C)c3)c2)CCN(C)C1 [Compound 46, 2,8-dimethyl-5-(3-(1-methyl-1H-pyrazol-4-yl)phenyl)-2,3,4,5-tetrahydro-1H-pyrido[4,3-b]indole]
[1]
  inhibition at 0.1 µM: 41%
[2]
  inhibition at 0.1 µM: 84%

## Cc1ccc2c(c1)c1c(n2-c2ccc(-c3ccc(F)nc3)cn2)CCN(C)C1 [Compound No. 142, 5-(6′-fluoro-3,3′-bipyridin-6-yl)-2,8-dimethyl-2,3,4,5-tetrahydro-1H-pyrido[4,3-b]indole]
[1]
  inhibition at 0.1 µM: 98%
[2]
  inhibition at 0.1 µM: 103%

## Cc1ccc2c(c1)c1c(n2-c2cscc2C(=O)N(C)C)CCN(C)C1 [Compound No. 152]
[1]
  inhibition at 0.1 µM: 22%
[2]
  inhibition at 0.1 µM: 31%

## CNC(=O)c1ccc(-c2cccc(-n3c4c(c5cc(C)ccc53)CN(C)CC4)c2)cn1 [Compound No. 75, 5-(3-(2,8-dimethyl-3,4-dihydro-1H-pyrido[4,3-b]indol-5(2H)-yl)phenyl)-N-methylpicolinamide]
[1]
  inhibition at 0.1 µM: 25%
[2]
  inhibition at 0.1 µM: 55%

## CNC(=O)c1ccc(-c2cscc2-n2c3c(c4cc(C)ccc42)CN(C)CC3)cc1 [Compound No. 155]
[1]
  inhibition at 0.1 µM: 31%
[2]
  inhibition at 0.1 µM: 27%

## CC(=O)Nc1ccc(-c2cscc2-n2c3c(c4cc(C)ccc42)CN(C)CC3)cn1 [Compound 56]
[1]
  inhibition at 0.1 µM: 38%
[2]
  inhibition at 0.1 µM: 31%

## Cc1ccc2c(c1)c1c(n2-c2ccc(-c3cnn(C)c3)cn2)CCN(C)C1 [Compound No. 134, 2,8-dimethyl-5-(5-(1-methyl-1H-pyrazol-4-yl)pyridin-2-yl)-2,3,4,5-tetrahydro-1H-pyrido[4,3-b]indole]
[1]
  inhibition at 0.1 µM: 96%
[2]
  inhibition at 0.1 µM: 88%

## Cc1ccc2c(c1)c1c(n2-c2ccc(-c3ccc4c(ccn4C)c3)cn2)CCN(C)C1 [Compound No. 136, 2,8-dimethyl-5-(5-(1-methyl-1H-indol-5-yl)pyridin-2-yl)-2,3,4,5-tetrahydro-1H-pyrido[4,3-b]indole]
[1]
  inhibition at 0.1 µM: 101%
[2]
  inhibition at 0.1 µM: 98%
